Assay results as given in PubChem BioAssay (NCI).
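Grown in 96-well plates, cells were treated for 48 hours with each compound at five concentrations. Insufficient inhibition: endpoint recorded as highest concentration tested. TGI is the concentration that stops growth completely.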

How the values were obtained:
Test in all cases: DTP human tumour cell line panel, 48 h
[1] = test system: KM12 colon
[2] = test system: UACC-257 melanoma
[3] = test system: NCI-H23 lung
[4] = test system: K-562 leukemia
[5] = test system: UO-31 renal
[6] = test system: OVCAR-4 ovarian
[7] = test system: HCT-116 colon
[8] = test system: DU-145 prostate
[9] = test system: TK-10 renal
[10] = test system: OVCAR-5 ovarian
[11] = test system: RPMI-8226 leukemia
[12] = test system: HCT-15 colon
[13] = test system: A549 NSCLC
[14] = test system: PC-3 prostate
[15] = test system: IGROV1 ovarian
[16] = test system: SW-620 colon
[17] = test system: MDA-N
[18] = test system: MCF7 breast
[19] = test system: SR leukemia
[20] = test system: OVCAR-3 ovarian
[21] = test system: A498 renal
[22] = test system: HL-60(TB) leukemia
[23] = test system: HOP-92 NSCLC
[24] = test system: SF-539 CNS
[25] = test system: SK-MEL-2 melanoma
[26] = test system: SK-OV-3 ovarian
[27] = test system: HT29 colon
[28] = test system: SK-MEL-5 melanoma
[29] = test system: LOX IMVI melanoma
[30] = test system: MOLT-4 leukemia
[31] = test system: HCC-2998 colon
[32] = test system: SNB-19 CNS
[33] = test system: SN12C renal
[34] = test system: HS 578T breast
[35] = test system: NCI-H226 lung
[36] = test system: SK-MEL-28 melanoma
[37] = test system: ACHN renal
[38] = test system: OVCAR-8 ovarian
[39] = test system: CAKI-1 renal
[40] = test system: NCI/ADR-RES ovarian
[41] = test system: CCRF-CEM leukemia
[42] = test system: U251 CNS
[43] = test system: 786-0 renal
[44] = test system: T-47D breast
[45] = test system: MALME-3M melanoma
[46] = test system: RXF 393 renal
[47] = test system: MDA-MB-435
[48] = test system: HOP-62 NSCLC
[49] = test system: NCI-H460 lung
[50] = test system: SF-295 CNS
[51] = test system: COLO 205 colon
[52] = test system: NCI-H522 lung
[53] = test system: EKVX NSCLC
[54] = test system: M14 melanoma
[55] = test system: MDA-MB-231 breast
[56] = test system: SF-268 CNS
[57] = test system: SNB-75 CNS
[58] = test system: UACC-62 melanoma

Measured: TGI

CCOC(=O)C(NC(=O)CC(C)C)(NC(C)C)C(F)(F)F (centres undefined)
not listed: [57] | [58]
> 100 µM: all other assays above

Nc1nc2c(ncn2CC2CCC(CO)C2)c(=O)[nH]1 (centres undefined)
not listed: [3] | [15] | [19] | [22] | [27] | [30] | [38] | [45] | [49] | [52]
> 100 µM: all other assays above
